Source: patent publication US20040023893A1, “Novel coumarin derivatives and the salts thereof, a process for the preparation thereof and their use in the pharmaceutical field” (priority 2000, published 2004)
Read-outs that look alike come from different tables or passages of the source.

Legend:
nitrite-nitrate release = test: Inhibition of the release of nitrite-nitrate in rat plasma after LPS; assay type: in vivo; settings: 25 mg/Kg o.s. 30 minutes before and 3 hours after LPS 0.1 mg/Kg i.v., blood 8 hours after LPS, Griess reagent, saline controls = 100%
Method: Test 4—Inhibition of the Release of Nitrite-Nitrate in Rat Plasma
The release of nitrite-nitrite was measured with Griess reagent in blood samples taken 8 hours after the administration of LPS (0.1 mg/Kg) i.v.
The animals were treated with the compounds by o.s. (25 mg/Kg) 30 minutes before and 3 hours after LPS. The control animals received saline instead of the test compounds. The values for the release of nitrite-nitrate were made to correspond to 100%.

[1] = tested on: TNF release, murine macrophage line (J774); test: Inhibition of TNF release after stimulation with LPS in vitro, J774 macrophages (L929 mortality readout); assay type: cell-based; settings: J774 macrophages stimulated with LPS, concentration (± standard error) inhibiting L929 fibroblast mortality by 50%, read-out: J774 CI50
Method: (§1) Test 1—Inhibition of TNF Release After Stimulation with LPS in vitro
(§2) The test compound was added to the culture medium in a murine macrophage line (J774) or to whole blood anti-coagulated with heparin. The cells were then stimulated with bacterial lipopolysacccharide. After incubation at 37° C. for a suitable length of time, the supernatant was removed from the culture and incubated with a line of murine fibroblasts (L929), sensitive to TNF. The quantity of TNF released after stimulation with LPS is measured by comparing mortality of the L929 cells with that of the controls. Table 1 reports for the single compounds the concentration (±standard error) able to inhibit fibroblast mortality (L929) by 50%.

TNF release, human blood = test: Inhibition of TNF release after stimulation with LPS in vitro, whole blood (L929 mortality readout); assay type: cell-based; settings: heparinised whole blood stimulated with LPS; concentration (± standard error) inhibiting L929 fibroblast mortality by 50%; read-out: Human blood CI50
Method: as §1, §2

TNF = test: Inhibition of the release of TNF following stimulation with LPS in vivo; settings: rat, blood 75 minutes after LPS, ELISA, vs saline controls
Method: (§3) Test 2—Inhibition of the Release of TNF and IL-β Following Stimulation with LPS in vivo
(§4) Conscious rats were injected with a dose of LPS, which is able to stimulate the release of TNF and IL-1β, having first received an intravenous administration (15 minutes beforehand) of the test compound at a dose of 0.5 mg/Kg or 2 mg/Kg. Blood levels of TNF and IL-1β were measured by the ELISA method on blood samples taken 75 minutes and 120 minutes after LPS respectively.
(§5) Table 2 below reports the percent of inhibition of each product compared to that of the controls treated with saline.

IL-1β = test: Inhibition of the release of IL-1β following stimulation with LPS in vivo; settings: rat, blood 120 minutes after LPS, ELISA, vs saline controls
Method: as §3, §4, §5

[2] = tested on: carrageenin-induced oedema in rat paw; test: Carrageenin-induced oedema in rat paw; assay type: in vivo; settings: 2 mg/Kg i.v. 5 minutes before 1.5 mg carrageenin intraplantar, paws weighed 3 hours later, saline controls = 100%
Method: Test 3—Reduction in Inflammation in Carrageenin-Induced Oedema in Rat Paw
A model of acute inflammation induced by intraplantar injection of 1.5 mg of carrageenin in rat paw was used. Administration of the compounds (2 mg/Kg) was by the intravenous route 5 minutes before oedema was induced: 3 hours later the animals were sacrificed and their paws were weighed as an indication of inflammation. The control animals received saline instead of the test compounds. The weight of the paws of the control animals was taken to correspond to 100% on the inflammation index.

[3] = tested on: superoxide anions, human whole blood; test: Inhibition of superoxide anion formation induced by f-MLP in human whole blood; assay type: cell-based; settings: 20 minutes preincubation at 37° C., f-MLP with cytochalasin B, read-out: CI50 (superoxide anion formation, Cytochrome C)
Method: Test 5—Inhibition of the Formation of Superoxide anions Induced by f-MLP in Human Whole Blood
Samples of whole blood diluted with PBS Cytochrome C were incubated for 20 minutes at 37° C. with the test compounds or saline before adding the chermotactic agent f-MLP (0.1 μm/l) in the presence of cytochalasin B. After 20 minutes of activation with this agent, the samples were centrifuged and readings were taken of the supernatants with a spectrophotometer to assess the reduction in Cytochrome C. Table 5 reports the concentrations that are effective in inhibiting the loss of Cytochrome C by 50%.

[4] = tested on: platelet aggregation, human whole blood; test: Inhibition of collagen-induced platelet aggregation in human whole blood; assay type: cell-based; settings: collagen 1 μg/ml, 1 minute preincubation, count 5 minutes after collagen, vs saline, read-out: CI50 (platelet aggregation)
Method: Test 6—Inhibition of Collagen-Induced Platelet Aggregation in Human Whole Blood
The aggregation event was analysed by counting the single non-aggregated platelets with a cell counter 5 minutes after adding collagen (1 μg/ml). In these working conditions, collagen induces platelet aggregation of over 80%. The test compounds or saline as control were preincubated for 1 minute before the collagen was added.
Table 6 reports the concentrations that inhibit platelet aggregation by 50% compared to saline.

[5] = Toxicity after a single intravenous administration; assay type: in vivo; settings: mouse, in vivo, male CD-1 mice, read-out: DMT (maximum tolerated dose, MTD)
Excerpt: (§6) Test 7—Toxicity After a Single Intravenous Administration
(§7) Male CD-1 mice were used to assess the maximum non-lethal does (MNLD—the highest does at which no cases of mortality are observed) and the maximum tolerated does (MTD—does at which no evident or marked signs of tocicity or altered behaviour are observed).

Male CD-1 mice = test: Toxicity after a single intravenous administration; assay type: in vivo
Excerpt: as §6, §7

[6] = tested on: Salmonella typhimurium (TA 98 and TA 100) and Escherichia coli (WP2 pKM101 and WP2 uvrA pKM1091); test: Mutagenesis (Mini-Ames test); assay type: cell-based; settings: with and without microsomal liver enzyme preparation
Method: Test 8—Mutagenesis (Mini-Ames Test)
The Mini-Ames test is a version of the traditional Ames test which involves the incubation of bacterial cells on 35-mm dishes instead of 100-mm dishes, and it requires a smaller quantity of product while maintaining the reliability of the result.
The test is conducted on two strains of Salmonella typhimurium requiring histidine (TA 98 and TA 100) and two strains of Escherichia coli requiring tryptophan (WP2 pKM101 and WP2 uvrA pKM1091).
The bacterial cells were exposed to different concentrations of the test compounds in the presence and absence of a microsomal liver enzyme preparation, to reveal any possible metabolite activity.
Mutagenic activity was determined as the ability of the test compound to induce a significant increase in the number of mutant clones compared to those developed spontaneously in the cultures with the control vehicle.

[7] = iv, dose of 0.5 mg/Kg i.v. 15 minutes before LPS
[8] = iv, dose of 2 mg/Kg i.v. 15 minutes before LPS
[9] = dose of 0.5 mg/Kg i.v. 15 minutes before LPS
[10] = dose of 2 mg/Kg i.v. 15 minutes before LPS

Compound | % vs controls (release of nitrite-nitrate) (nitrite-nitrate release) [%] | IC50 ([1]; Mus musculus) [µM] | IC50 (TNF release, human blood) [µM] | inhibition at 0.5 mg/kg (TNF; [7]) [%] | inhibition at 2 mg/kg (TNF; [8]) [%] | inhibition at 0.5 mg/kg (IL-1β; [7]) [%] | inhibition at 2 mg/kg (IL-1β; [8]) [%] | /o vs controls (paw weight, inflammation index) [2] | IC50 [3] [µM] | IC50 ([4]; Platelet) [µM] | MTD [5] [mg/kg] | DMNL (maximum non-lethal dose, MNLD) (Male CD-1 mice) | IC50 [1] [µM] | IC50 [4] [µM] | DMT (maximum tolerated dose, MTD) (Male CD-1 mice) [mg/kg] | % of inhibition of TNF (TNF; [9]) [%] | % of inhibition of TNF (TNF; [10]) [%] | % of inhibition of IL-1β (IL-1β; [9]) [%] | % of inhibition of IL-1β (IL-1β; [10]) [%] | Mutagenic activity (Mini-Ames test) [6]
C[C@H]1C[C@H]2[C@@H]3CCC4=CC(=O)C=C[C@]4(C)[C@@]3(F)[C@@H](O)C[C@]2(C)[C@@]1(O)C(=O)CO [Betamethasone, reference compound] | 20 |  |  |  |  |  |  |  |  |  |  |  |  |  |  |  |  |  |  | 
CCOC(=O)COc1ccc2c(C)c(CCN(CC)CC)c(=O)oc2c1Cl [Compound 201006, Cloricromene, reference compound] | 99 | 57.9 ± 20 | 78.6 ± 10 | 9 | 30 | 45 | 28 | 79 /o | 52 | 35 | 6.25 | 12.5 mg(Kg |  |  |  |  |  |  |  | 
CCOC(=O)[C@@H](N)CSCC(O)COc1ccc2c(C)c(CCN(CC)CC)c(=O)oc2c1.Cl.Cl (some centres unmarked) [Compound 201261] | 98 |  | 9 |  |  |  |  | 86 /o |  |  |  | 200 mg(Kg | 25.4 | > 100 | 50 |  |  |  |  | 
CCCCC(O)COc1ccc2c(C)c(CCN(CC)CC)c(=O)oc2c1.Cl (centres unmarked) [Compound 201273] | 76 |  | 40.4 ± 13.5 |  |  |  |  | 67 /o | > 100 |  |  | 100 mg(Kg | 27.5 ± 5.3 | > 100 | 25 | 72 | 84 | 67 | 39 | None of the tested compounds (203152, 201273, 201326 and 201330) proved to be mutagenic
CCCCC(O)COc1ccc2c(C)c(CCN(CC)CC)c(=O)oc2c1Cl.Cl (centres unmarked) [Compound 201326] | 62 |  | 23 ± 2 |  |  |  |  | 58 /o | > 100 |  |  | 50 mg(Kg | 10.5 ± 3 | 78 | 6.25 | 85 | 77 | 40 | 62 | None of the tested compounds (203152, 201273, 201326 and 201330) proved to be mutagenic
CCN(CC)CCc1c(C)c2ccc(OCC(=O)NC3CCCCC3)c(Cl)c2oc1=O.Cl.Cl [Compound 201330] |  |  | 12.6 ± 3.5 |  |  |  |  | 77 /o | 36 |  |  | 50 mg(Kg | 12 ± 3.9 | 93 | 25 | 75 | 62 | 33 | 57 | None of the tested compounds (203152, 201273, 201326 and 201330) proved to be mutagenic
C=CCc1cc2c(C)c(CN3CCOCC3)c(=O)oc2c(CC=C)c1OCCCOc1c(CC=C)cc2c(C)c(CN3CCOCC3)c(=O)oc2c1CC=C.Cl.Cl [Compound 203152] | 108 |  | > 80 |  |  |  |  | 90 /o | > 100 |  |  | 200 mg(Kg | 13.3 ± 9 | > 100 | 50 | 72 | 73 | 64 | 60 | None of the tested compounds (203152, 201273, 201326 and 201330) proved to be mutagenic
COc1ccc2c(c1)c(CC(=O)O)c(C)n2C(=O)c1ccc(Cl)cc1 [Indomethacin, reference compound] |  |  |  |  |  |  |  | 57 /o |  |  |  |  |  |  |  |  |  |  |  | 
C[C@H]1C[C@@H]2[C@H]([C@@H](O)C[C@@]3(C)[C@H]2CC[C@]3(O)C(=O)CO)[C@@]2(C)C=CC(=O)C=C12 [Methylprednisolone, reference compound] |  |  |  |  |  |  |  | 56 /o |  |  |  |  |  |  |  |  |  |  |  | 
CCCCC[C@H](O)/C=C/[C@@H]1[C@H]2C/C(=C/CCCC(=O)O)O[C@H]2C[C@H]1O [PG12, reference compound] |  |  |  |  |  |  |  |  |  |  |  |  |  | 0.05 |  |  |  |  |  | 
